For this test, the target named is T1, H+/K+ ATPase (Oryctolagus cuniculus, UniProt P27112).
T1 construct: The stomach tissue of the rabbit was separated; from tissue; host or cells: rabbit stomach (fundus) mucosa, membrane fraction obtained by differential and Ficoll centrifugation
Briefly: determination of compounds' inhibition of H+/K+ ATPase enzyme activity (malachite green, OD 620 nm). The format is biochemical. The settings on record: enzyme extracted from rabbit stomach tissue; pH 6.5; ATP 500 μM; 37° C. The text has this: Test example: determination of compounds' inhibition of H^+/K+ATPase enzyme activity
The following experiment is used to determine the inhibitory effect of the compound of the present invention on the H^+/K+ATPase enzyme activity.
1. Experimental materials
Plate reader: SpectraMax M5 (MD)
Malachite Green (Sigma Aldrich, 213020-25G)
Ammonium molybdate (Sigma Aldrich, 277908-20G)
ATP (Sigma Aldrich, A1852-1VL).
Enzyme working solution: titrating the enzyme, diluting the enzyme with buffer 1, and during the reaction, taking 5 μl of the diluted solution into 50 μl reaction system.
ATP solution: 100 mM ATP was diluted to 5 mM with no K+buffer, and 5 μl of the diluted solution was added to the 50 μl reaction system, that is, the final concentration of ATP was 500 μM.
MLG color development liquid: 0.12% MLG, 7.5% ammonium molybdate, and […] Tween-20 was mixed as 100:25:2, and adding 15 μl of the mixture into each well during detection.
Buffer 1: 50 mM Tris-HCl pH 6.5, 5 mM magnesium chloride (magnesium chloride), 10 μM valinomycin (valinomycin).
Buffer 2: 50 mM Tris-HCl pH 6.5, 5 mM magnesium chloride (magnesium chloride), 10 μM valinomycin (valinomycin), 20 mM KCl.
Homogenization buffer: 10 mmol/L Tris-HCl, pH 6.8, 0.25M sucrose (sucrose), 1 mmol/LEDTA. 7.5% Ficoll layering solution: homogenization buffer+7.5% (W/W) 400 (Ficoll 400).
3.1. H^+/K^+ ATPase enzyme extraction
(1) The stomach tissue of the rabbit was separated, and the blood was washed with tap water, food residue.
(2) The fundus portion was thoroughly washed with pre-cooled NaCl solution to remove surface mucus.
(3) The stripped mucosa was filled into a sample bag or a 50 ml centrifuge tube, and quickly freezing in a liquid nitrogen tank.
(4) The tissue was removed, minced with surgical scissors, and a pre-cooled homogenization buffer (4 ml/g tissue) was added and homogenized in a tissue homogenizer for 2 to 10 minutes.
(5) After homogenization, if there were larger tissue particles, they could be removed by centrifugation (600 g, 10 min), and then the supernatant was transferred to a clean centrifuge tube. After centrifugation at 20000 g for 30 minutes, then the supernatant was transferred to a clean centrifuge tube at 100000 g for 90 minutes and the precipitate was collected.
(6) Resuspending the precipitate with homogenization buffer, blowing uniformly, adding 7.5% Ficoll layering solution at equal ratio, centrifuging at 100000 g for 90 minutes, and collecting the precipitate.
(7) Resuspending the precipitate with homogenization buffer, blowing uniformly, and the protein concentration was measured by Bradford. Freezing in tubes at −80° C. for later use.
3.2. H^+/K^+ ATPase activity experiment
(1) Adding 35 μl of reaction buffer to each experimental well, and then added 35 μl of buffer 1.
(2) Adding 5 μl buffer 1 containing 10% DMSO to the whole enzyme and buffer well.
(3) Adding 5 μl of 10× compound working solution to the compound well and mixing well.
(4) Adding 5 of buffer 1 to the buffer well.
(5) Adding 5 μl of 10× enzyme working solution to the remaining wells, mixing and incubating at 37° C. for 30 minutes.
(6) Adding 5 μl of 10XATP working solution to all experimental wells, and incubating at 37° C. for 20 min.
(7) Adding 15 μl MLG chromogenic solution to all experimental wells, and uniformly mixing and incubating at room temperature for 5-30 min.
(8) The reading number of 620 nm was detected by an M5 instrument.
The inhibition rate is calculated with the following formula: Inhibition rate (IC50)=[OD (sample well)−OD (full enzyme well containing potassium chloride)]/[(OD (full enzyme well containing potassium chloride)−(OD (full enzyme well without potassium chloride Enzyme hole)]×100%

Counter-ions that a name gives are not always drawn.

T1 sequence (P27112 whole entry): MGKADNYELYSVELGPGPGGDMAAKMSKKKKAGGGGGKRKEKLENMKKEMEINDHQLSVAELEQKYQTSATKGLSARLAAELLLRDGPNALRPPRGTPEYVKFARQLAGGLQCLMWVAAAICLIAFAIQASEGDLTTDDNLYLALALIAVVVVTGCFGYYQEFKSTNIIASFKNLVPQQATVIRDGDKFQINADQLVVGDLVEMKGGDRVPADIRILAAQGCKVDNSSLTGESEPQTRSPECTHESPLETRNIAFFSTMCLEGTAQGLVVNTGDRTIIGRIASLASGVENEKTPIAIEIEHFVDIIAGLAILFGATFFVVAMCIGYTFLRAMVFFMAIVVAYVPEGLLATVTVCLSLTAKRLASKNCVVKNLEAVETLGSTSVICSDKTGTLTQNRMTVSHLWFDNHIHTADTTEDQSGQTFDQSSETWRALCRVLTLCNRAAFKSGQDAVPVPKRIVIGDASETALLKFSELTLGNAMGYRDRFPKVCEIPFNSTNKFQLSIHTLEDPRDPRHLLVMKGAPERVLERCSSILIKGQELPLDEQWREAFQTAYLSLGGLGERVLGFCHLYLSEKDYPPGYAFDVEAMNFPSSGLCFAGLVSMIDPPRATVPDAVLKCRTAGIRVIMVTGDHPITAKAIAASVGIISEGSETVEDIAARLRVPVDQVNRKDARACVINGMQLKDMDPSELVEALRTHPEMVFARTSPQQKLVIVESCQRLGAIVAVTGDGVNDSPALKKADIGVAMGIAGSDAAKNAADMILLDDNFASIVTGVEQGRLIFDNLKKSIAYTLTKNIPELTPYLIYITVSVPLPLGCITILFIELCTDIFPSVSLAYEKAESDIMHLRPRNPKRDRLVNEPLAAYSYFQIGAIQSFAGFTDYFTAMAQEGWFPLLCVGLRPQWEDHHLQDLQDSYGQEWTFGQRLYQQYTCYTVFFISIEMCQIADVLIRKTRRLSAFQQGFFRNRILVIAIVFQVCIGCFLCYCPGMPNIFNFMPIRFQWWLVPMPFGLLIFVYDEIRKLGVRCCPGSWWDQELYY
T1 sequence (P18597 whole entry partner): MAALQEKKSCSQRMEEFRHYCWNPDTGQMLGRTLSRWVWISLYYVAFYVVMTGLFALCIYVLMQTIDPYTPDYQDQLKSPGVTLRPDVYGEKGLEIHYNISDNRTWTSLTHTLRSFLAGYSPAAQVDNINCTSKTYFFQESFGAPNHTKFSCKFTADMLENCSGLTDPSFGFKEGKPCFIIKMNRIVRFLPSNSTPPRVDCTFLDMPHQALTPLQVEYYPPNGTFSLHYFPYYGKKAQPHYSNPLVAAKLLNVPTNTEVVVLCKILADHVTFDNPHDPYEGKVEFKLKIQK

As to `COC(=O)c1cccc(Cn2nc3c(c2-c2ccccc2F)CN(C)C3)c1` [Example 1, 3-((3-(2-fluorophenyl)-5-methyl-5,6-dihydropyrrolo[3,4-c]pyrazole-2(4H)-yl)methyl)benzoic acid ester], the midpoint of inhibition, the IC50, lay at 0.0776 µM.
`CCCCOC(=O)c1cccc(Cn2nc3c(c2-c2ccccc2F)CN(C)C3)c1` [Example 2, 3-((3-(2-fluorophenyl)-5-methyl-5,6-dihydropyrrolo [3,4-c]pyrazole-2(4H)-yl)methyl)butyl benzoate] came in with an IC50 of 0.0968 µM.
`CCOC(=O)c1cccc(Cn2nc3c(c2-c2ccccc2F)CN(C)C3)c1` [Example 3, 3-((3-(2-fluorophenyl)-5-methyl-5,6-dihydropyrrolo[3,4-c]pyrazole-2(4H)-yl)methyl) ethyl benzoate]: the IC50 worked out at 0.0904 µM.
In the case of `CN1Cc2nn(Cc3cccc(C(=O)NC4CC4)c3)c(-c3ccccc3F)c2C1` [Example 4, N-cyclopropyl-3-((3-(2-fluorophenyl)-5-methyl-5,6-dihydropyrrolo[3,4-c]pyrazole-2(4H)-Yl)methyl)benzamide], the IC50 is 0.539 µM.
As for `CN1Cc2nn(Cc3cccc(C(=O)OC(C)(C)C(N)=O)c3)c(-c3ccccc3F)c2C1` [Example 5, 1-amino-2-methyl-1-oxopropan-2-yl-3-((3-(2-fluorophenyl)-5-methyl-5,6-dihydropyrrolo [3,4-c]pyrazole-2(4H)-yl)methyl)benzoate], the IC50 was found to be 0.225 µM.
For `COC(=O)c1cccc(Cn2nc3c(c2-c2ccccc2C)CN(C)C3)c1` [Example 6, 3-((5-methyl-3-(o-tolyl)-5,6-dihydropyrrolo[3,4-c]pyrazole-2(4H)-yl)methyl) Methyl benzoate], inhibition was half-maximal at 0.0366 µM (IC50).
The molecule `COC(=O)c1cc(Cn2nc3c(c2-c2ccccc2C)CN(C)C3)ccc1F` [Example 7, 2-Fluoro-5-((5-methyl-3-(o-tolyl)-5,6-dihydropyrrole [3,4-c]pyrazole-2 (4H)-yl)methane Yl) methyl benzoate] registered an IC50 of 0.039 µM.
`Cc1ccccc1-c1c2c(nn1Cc1cccc(C(=O)OC(C)(C)C)c1)CN(C)C2` [Example 8, 3-((5-Methyl-3-(o-tolyl)-5,6-dihydropyrrolo[3,4-c]pyrazole-2(4H)-yl)methyl) benzene Tert-butyl formate] showed an IC50 of 0.589 µM.
Consider `COC(=O)c1cccc(Cn2nc3c(c2-c2ccc(F)cc2F)CN(C)C3)c1` [Example 9, 3-((3-(2,4-Difluorophenyl)-5-methyl-5,6-dihydropyrrolo [3,4-c]pyrazole-2(4H)-yl) Methyl) methyl benzoate], for which the IC50 worked out at 0.0614 µM.
